# From PMC4197335, “Cancer-Selective Targeting of the NF-κB Survival Pathway with GADD45β/MKK7 Inhibitors” (Cancer Cell, 2014)
# Read-outs that look alike come from different tables or passages of the source. Where a SMILES comes first, the peptide text is derived from it. [ ]: non-standard residue; d: D form. The star is where a group is joined. Benzoyl(3-OH,4-OMe) = COc1ccc(C(=O)*)cc1O; ClZ = O=C(OCc1ccccc1Cl)*; Cbz = O=C(OCc1ccccc1)*
# Target: T1, GADD45β/MKK7 complex (Homo sapiens, UniProt O14733)
# T1 construct: Full-length human (h)MKK7 was expressed as a protein fused to an N-terminal GST tag (GST-MKK7); made in house
# T1 sequence (O14733 1-419): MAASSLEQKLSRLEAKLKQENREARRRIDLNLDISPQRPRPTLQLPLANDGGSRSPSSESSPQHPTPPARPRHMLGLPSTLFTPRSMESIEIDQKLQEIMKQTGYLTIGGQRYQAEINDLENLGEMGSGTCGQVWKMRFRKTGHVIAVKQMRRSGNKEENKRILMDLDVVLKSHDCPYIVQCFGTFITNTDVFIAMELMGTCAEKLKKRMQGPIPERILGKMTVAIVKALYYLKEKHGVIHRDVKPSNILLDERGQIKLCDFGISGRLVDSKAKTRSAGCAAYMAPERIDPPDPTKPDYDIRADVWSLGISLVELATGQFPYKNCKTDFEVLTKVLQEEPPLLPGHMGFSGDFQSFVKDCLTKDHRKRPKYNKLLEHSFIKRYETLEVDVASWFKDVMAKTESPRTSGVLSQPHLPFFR
# Experiment: ELISA GADD45β/MKK7 competition assay
# Format: binding
# Source text: Additional details are provided in Supplemental Experimental Procedures.
# (1:1,000) and the HRP chromogenic substrate, o -phenylenediamine (OPD). GST -coated wells wer e […]
# The ELISA competition screen used f or the isolation of antagonists of the GADD45β /MKK7 […]
# The library deconvolution strategy used for this screen was described previously […]
# General information about this type of screens can be found elsewhere […]
# Values were expressed as the percentage of inhibition of His6-hGADD45β binding to GST-hMKK7 relative to the binding measured in the absence of […]
# Dose-response, ELISA GADD45β /MKK7 competition assays were carried out under similar […]
# As part of the SAR analysis and lead optimization process, where appropriate, competitors were tested at a concentration up to 100 nM. In order to determine their stability in biolog ical f luids , peptides were incubated at the concentration of 10 µM in […]
# calculated using at least 7 concentrations of peptide and def ined as the mean concentration of peptide […]
# the absence of competitor. W here indicated, values were expressed as the percentage of inhibition of His 6 -hGADD45β binding to GST-hMKK7 relative to the binding measured in the absence of competitor.
# GST was used as a control in all the experiments. […]
# tetrapeptide used as negative control in some of the ELISA and cellular assays was as f ollows: z -DNC, z-T yr -Asp-His-Gln-NH 2 . […]
# [1] = Table S3, peptide at 10 nM, read-out: % inhibition (ELISA)
# [2] = Table S3, read-out: IC50 (ELISA)
# [3] = Table S4, values marked (#), peptide at 42 nM, read-out: % inhibition of (ELISA)
# [4] = Figure 3A, before preincubation with human serum, read-out: IC50
# [5] = Figure 3B, after a 48 hr preincubation with human serum, read-out: IC50
# [6] = Table S2, peptide at 42 nM, read-out: % inhibition (ELISA)
# [7] = Table S4, read-out: IC50s (ELISA)
SMILES,inhibition at 0.042 µM [6] [%],IC50 [7] [nM],other results
"COc1ccc(C(=O)N[C@H](Cc2ccc(O)cc2)C(=O)N[C@H](CC(=O)O)C(=O)N[C@H](Cc2c[nH]cn2)C(=O)N[C@H](Cc2ccccc2)C(N)=O)cc1O ({Benzoyl(3-OH,4-OMe)}-[dY][dD][dH][dF]-NH2)",,,inhibition at 0.01 µM (read-out: % inhibition (ELISA)): 81%
"COc1ccc(C(=O)N[C@H](Cc2ccc(O)cc2)C(=O)N[C@H](CC(=O)O)C(=O)N[C@H](Cc2c[nH]cn2)C(=O)N[C@H](CCC(N)=O)C(N)=O)cc1O ({Benzoyl(3-OH,4-OMe)}-[dY][dD][dH][dQ]-NH2)",,,inhibition at 0.01 µM (read-out: % inhibition (ELISA)): 7%
"COc1ccc(C(=O)N[C@H](Cc2ccc(O)cc2)C(=O)N[C@H](CCC(=O)O)C(=O)N[C@H](CCCNC(=N)N)C(=O)N[C@H](Cc2ccccc2)C(N)=O)cc1O ({Benzoyl(3-OH,4-OMe)}-[dY][dE][dR][dF]-NH2)",,,inhibition at 0.01 µM (read-out: % inhibition (ELISA)): 86%
NC(=O)[C@@H](Cc1ccccc1)NC(=O)[C@@H](Cc1c[nH]cn1)NC(=O)[C@@H](CC(=O)O)NC(=O)[C@@H](Cc1ccc(O)cc1)NC(=O)OCc1ccccc1Cl [2CI-z-YDHF-NH2] (ClZ-[dY][dD][dH][dF]-NH2),,,inhibition at 0.01 µM [1]: 38%; IC50 [2]: > 10 nM
NC(=O)CC[C@@H](NC(=O)[C@@H](Cc1c[nH]cn1)NC(=O)[C@@H](CC(=O)O)NC(=O)[C@@H](Cc1ccc(O)cc1)NC(=O)OCc1ccccc1Cl)C(N)=O [2CI-z-YDHQ-NH2] (ClZ-[dY][dD][dH][dQ]-NH2),,,inhibition at 0.01 µM [1]: 40%; IC50 [2]: > 10 nM
N=C(N)NCCC[C@@H](NC(=O)[C@@H](CCC(=O)O)NC(=O)[C@@H](Cc1ccc(O)cc1)NC(=O)OCc1ccccc1Cl)C(=O)N[C@H](Cc1ccccc1)C(N)=O [2CI-z-YERF-NH2] (ClZ-[dY][dE][dR][dF]-NH2),,,inhibition at 0.01 µM [1]: 38%; IC50 [2]: > 10 nM
CC(=O)NC(C)C(=O)NC(CCC(=O)O)C(=O)NC(CCCNC(=N)N)C(=O)NC(Cc1ccccc1)C(N)=O (stereo not drawn) [Ac-AERF-NH2] (Ac-AERF-NH2; configuration not given here),,,inhibition at 0.042 µM [3]: 7%
"CC(=O)N[C@H](Cc1ccc(O)cc1)C(=O)N[C@H](CC(=O)O)C(=O)N[C@H](Cc1c[nH]cn1)C(=O)N[C@H](Cc1ccccc1)C(N)=O [Ac-DTP1, Ac-Tyr-Asp-His-Phe-NH2]",,,IC50 [4]: 0.19 nM; IC50 [5]: 0.2 nM
"CC(=O)N[C@H](Cc1ccc(O)cc1)C(=O)N[C@H](CCC(=O)O)C(=O)N[C@H](CCCNC(=N)N)C(=O)N[C@H](Cc1ccccc1)C(N)=O [Ac-DTP2, Ac-Tyr-Glu-Arg-Phe-NH2]",,,IC50 [4]: 0.22 nM; IC50 [5]: 0.22 nM
"CC(=O)N[C@@H](Cc1ccc(O)cc1)C(=O)N[C@@H](CC(=O)O)C(=O)N[C@@H](Cc1c[nH]cn1)C(=O)N[C@@H](Cc1ccccc1)C(N)=O [Ac-LTP1, Ac-YDHF-NH2]",94,,IC50 [4]: 0.4 nM; IC50 [5]: > 10 nM
"CC(=O)N[C@@H](Cc1ccc(O)cc1)C(=O)N[C@@H](CCC(=O)O)C(=O)N[C@@H](CCCNC(=N)N)C(=O)N[C@@H](Cc1ccccc1)C(N)=O [Ac-LTP2, Ac-YERF-NH2]",93,0.4,IC50 [5]: > 10 nM
CC(=O)N1CCCC1C(=O)NC(CCC(=O)O)C(=O)NC(CCCNC(=N)N)C(=O)NC(Cc1ccccc1)C(N)=O (stereo not drawn) [Ac-PERF-NH2] (Ac-PERF-NH2; configuration not given here),,,"inhibition at 0.01 µM (Table S4, values marked (##), peptide at 10 nM, read-out: % inhibition of (ELISA)): 24%"
CC(=O)N[C@@H](Cc1c[nH]c2ccccc12)C(=O)N[C@@H](CC(=O)O)C(=O)N[C@@H](Cc1c[nH]cn1)C(=O)N[C@@H](Cc1ccccc1)C(N)=O [Ac-WDHF-NH2] (Ac-WDHF-NH2),28,> 42,
CC(=O)N[C@@H](Cc1c[nH]c2ccccc12)C(=O)N[C@@H](CC(=O)O)C(=O)N[C@@H](CCCCN)C(=O)N[C@@H](Cc1ccccc1)C(N)=O [Ac-WDKF-NH2] (Ac-WDKF-NH2),25,,
CC(=O)N[C@@H](Cc1c[nH]c2ccccc12)C(=O)N[C@@H](CC(=O)O)C(=O)N[C@@H](CCCCN)C(=O)N[C@@H](Cc1c[nH]c2ccccc12)C(N)=O [Ac-WDKW-NH2] (Ac-WDKW-NH2),69,< 42,
CC(=O)N[C@@H](Cc1c[nH]c2ccccc12)C(=O)N[C@@H](CCC(=O)O)C(=O)N[C@@H](Cc1c[nH]cn1)C(=O)N[C@@H](Cc1c[nH]c2ccccc12)C(N)=O [Ac-WEHW-NH2] (Ac-WEHW-NH2),75,< 42,
CC(=O)N[C@@H](Cc1c[nH]c2ccccc12)C(=O)N[C@@H](CCC(=O)O)C(=O)N[C@@H](CCCCN)C(=O)N[C@@H](Cc1ccccc1)C(N)=O [Ac-WEKF-NH2] (Ac-WEKF-NH2),65,< 42,
CC(=O)N[C@@H](Cc1c[nH]c2ccccc12)C(=O)N[C@@H](CCC(=O)O)C(=O)N[C@@H](CCCCN)C(=O)N[C@@H](Cc1c[nH]c2ccccc12)C(N)=O [Ac-WEKW-NH2] (Ac-WEKW-NH2),58,< 42,
CC(=O)N[C@@H](Cc1c[nH]c2ccccc12)C(=O)N[C@@H](CCC(=O)O)C(=O)N[C@@H](CCCNC(=N)N)C(=O)N[C@@H](Cc1ccccc1)C(N)=O [Ac-WERF-NH2] (Ac-WERF-NH2),28,> 42,
CC(=O)N[C@@H](Cc1c[nH]c2ccccc12)C(=O)N[C@@H](CCC(=O)O)C(=O)N[C@@H](CCCNC(=N)N)C(=O)N[C@@H](Cc1c[nH]c2ccccc12)C(N)=O [Ac-WERW-NH2] (Ac-WERW-NH2),64,< 42,inhibition at 0.042 µM [3]: 69%
CC(=O)N[C@H](Cc1ccc(O)cc1)C(=O)N[C@H](C)C(=O)N[C@H](CCCNC(=N)N)C(=O)N[C@H](Cc1ccccc1)C(N)=O [Ac-YARF-NH2] (Ac-[dY][dA][dR][dF]-NH2),,,inhibition at 0.042 µM (read-out: % inhibition of (ELISA)): 17%
CC(=O)N[C@H](Cc1ccc(O)cc1)C(=O)N[C@H](CC(=O)O)C(=O)N[C@H](Cc1c[nH]cn1)C(=O)N[C@H](Cc1ccccc1)C(=O)N[C@H](CCCCNC(=O)OCc1ccccc1)C(N)=O [Ac-YDHFK(εZ)-NH2] (Ac-[dY][dD][dH][dF][dK](Cbz)-NH2),,,inhibition at 0.01 µM [1]: 8%; IC50 [2]: > 10 nM
CC(=O)N[C@H](Cc1ccc(O)cc1)C(=O)N[C@H](CC(=O)O)C(=O)N[C@H](Cc1c[nH]cn1)C(=O)N[C@H](CCC(N)=O)C(=O)N[C@H](CCCCNC(=O)OCc1ccccc1)C(N)=O [Ac-YDHQK(εZ)-NH2] (Ac-[dY][dD][dH][dQ][dK](Cbz)-NH2),,,inhibition at 0.01 µM [1]: 2%; IC50 [2]: > 10 nM
CC(=O)N[C@@H](Cc1ccc(O)cc1)C(=O)N[C@@H](CC(=O)O)C(=O)N[C@@H](CCCCN)C(=O)N[C@@H](Cc1c[nH]c2ccccc12)C(N)=O [Ac-YDKW-NH2] (Ac-YDKW-NH2),43,> 10,
CC(=O)N[C@H](Cc1ccc(O)cc1)C(=O)N[C@H](CCC(=O)O)C(=O)N[C@H](C)C(=O)N[C@H](Cc1ccccc1)C(N)=O [Ac-YEAF-NH2] (Ac-[dY][dE][dA][dF]-NH2),,,inhibition at 0.042 µM [3]: 13%
CC(=O)N[C@@H](Cc1ccc(O)cc1)C(=O)N[C@@H](CCC(=O)O)C(=O)N[C@@H](Cc1c[nH]cn1)C(=O)N[C@@H](Cc1c[nH]c2ccccc12)C(N)=O [Ac-YEHW-NH2] (Ac-YEHW-NH2),64,< 42,
CC(=O)N[C@@H](Cc1ccc(O)cc1)C(=O)N[C@@H](CCC(=O)O)C(=O)N[C@@H](CCCCN)C(=O)N[C@@H](Cc1ccccc1)C(N)=O [Ac-YEKF-NH2] (Ac-YEKF-NH2),64,< 42,
CC(=O)N[C@@H](Cc1ccc(O)cc1)C(=O)N[C@@H](CCC(=O)O)C(=O)N[C@@H](CCCCN)C(=O)N[C@@H](Cc1c[nH]c2ccccc12)C(N)=O [Ac-YEKW-NH2] (Ac-YEKW-NH2),22,> 42,
